According to ChEMBL document CHEMBL1201862, “PubChem BioAssay data set” (2004):
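Cells were grown in 96-well plates and exposed to each compound for 48 hours at five concentrations; endpoints were interpolated linearly between bracketing concentrations, or set to the highest concentration if not reached. Abbreviation: GI50, concentration required for 50% inhibition of growth.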 The source made the active and inactive calls. No stated cut-off is given here; in the data, active = GI50 up to about 1.1 µM and inactive = higher.

Tests used:
Assay in all cases: growth of human tumour cells (NCI), 48 h
786-0 = system: 786-0
A498 = system: A498
A549 = system: A549
ACHN = system: ACHN
BT-549 = system: BT-549
CAKI-1 = system: CAKI-1
CCRF-CEM = system: CCRF-CEM
COLO 205 = system: COLO 205
DU-145 = system: DU-145
EKVX = system: EKVX
HCC 2998 = system: HCC 2998
HCT-116 = system: HCT-116
HCT-15 = system: HCT-15
HL-60 = system: HL-60
HOP-62 = system: HOP-62
HOP-92 = system: HOP-92
HT-29 = system: HT-29
Hs-578T = system: Hs-578T
IGROV-1 = system: IGROV-1
K562 = system: K562
KM12 = system: KM12
LOX IMVI = system: LOX IMVI
M14 = system: M14
MCF7 = system: MCF7
MDA-MB-231 = system: MDA-MB-231
MDA-MB-435 = system: MDA-MB-435
MDA-N = system: MDA-N
MOLT-4 = system: MOLT-4
Malme-3M = system: Malme-3M
NCI-H226 = system: NCI-H226
NCI-H23 = system: NCI-H23
NCI-H460 = system: NCI-H460
NCI-H522 = system: NCI-H522
NCI/ADR-RES = system: NCI/ADR-RES
OVCAR-3 = system: OVCAR-3
OVCAR-4 = system: OVCAR-4
OVCAR-5 = system: OVCAR-5
OVCAR-8 = system: OVCAR-8
PC-3 = system: PC-3
RPMI-8226 = system: RPMI-8226
RXF 393 = system: RXF 393
SF-268 = system: SF-268
SF-295 = system: SF-295
SF-539 = system: SF-539
SK-MEL-28 = system: SK-MEL-28
SK-MEL-2 = system: SK-MEL-2
SK-MEL-5 = system: SK-MEL-5
SK-OV-3 = system: SK-OV-3
SN12C = system: SN12C
SNB-19 = system: SNB-19
SNB-75 = system: SNB-75
SR = system: SR
SW-620 = system: SW-620
T47D = system: T47D
TK-10 = system: TK-10
U-251 = system: U-251
UACC-257 = system: UACC-257
UACC-62 = system: UACC-62
UO-31 = system: UO-31

CCCNC1=C2CC(C)CC(OC)[C@@H](O)[C@H](C)/C=C(\C)C(OC(N)=O)C(OC)/C=C\C=C(/C)C(=O)NC(=CC1=O)C2=O (some centres undefined)
GI50 (786-0): 0.443 µM (active)
GI50 (A498): 0.944 µM (active)
GI50 (A549): 0.0847 µM (active)
GI50 (ACHN): 0.502 µM (active)
GI50 (BT-549): 12.3 µM (inactive)
GI50 (CAKI-1): 11.5 µM (inactive)
GI50 (CCRF-CEM): 0.273 µM (active)
GI50 (COLO 205): 0.0319 µM (active)
GI50 (DU-145): 0.111 µM (active)
GI50 (EKVX): 3.36 µM (inactive)
GI50 (HCC 2998): 0.264 µM (active)
GI50 (HCT-116): 0.231 µM (active)
GI50 (HCT-15): 0.321 µM
GI50 (HL-60): 0.214 µM (active)
GI50 (HOP-62): 0.245 µM (active)
GI50 (HOP-92): 0.124 µM (active)
GI50 (HT-29): 0.0101 µM (active)
GI50 (Hs-578T): 3.03 µM (inactive)
GI50 (IGROV-1): 0.498 µM (active)
GI50 (K562): 0.141 µM (active)
GI50 (KM12): 0.0362 µM (active)
GI50 (LOX IMVI): 0.103 µM (active)
GI50 (M14): 0.561 µM (active)
GI50 (MCF7): 0.124 µM (active)
GI50 (MDA-MB-231): 0.318 µM (active)
GI50 (MDA-MB-435): 0.274 µM (active)
GI50 (MDA-N): 0.118 µM (active)
GI50 (MOLT-4): 0.332 µM (active)
GI50 (Malme-3M): 0.0612 µM (active)
GI50 (NCI-H226): 0.551 µM (active)
GI50 (NCI-H23): 0.0847 µM (active)
GI50 (NCI-H460): 0.0685 µM (active)
GI50 (NCI-H522): 0.00678 µM (active)
GI50 (NCI/ADR-RES): 3.31 µM (inactive)
GI50 (OVCAR-3): 1.65 µM (inactive)
GI50 (OVCAR-4): 26.6 µM (inactive)
GI50 (OVCAR-5): 0.0311 µM (active)
GI50 (OVCAR-8): 0.337 µM (active)
GI50 (PC-3): 0.411 µM (active)
GI50 (RPMI-8226): 0.762 µM (active)
GI50 (RXF 393): 1.56 µM (inactive)
GI50 (SF-268): 0.524 µM (active)
GI50 (SF-295): 0.222 µM (active)
GI50 (SF-539): 0.698 µM (active)
GI50 (SK-MEL-28): 0.0627 µM (active)
GI50 (SK-MEL-2): 0.129 µM (active)
GI50 (SK-MEL-5): 0.0637 µM (active)
GI50 (SK-OV-3): 0.101 µM (active)
GI50 (SN12C): 0.0809 µM (active)
GI50 (SNB-19): 0.637 µM (active)
GI50 (SNB-75): 0.318 µM (active)
GI50 (SR): 0.31 µM (active)
GI50 (SW-620): 0.0379 µM (active)
GI50 (T47D): 0.476 µM (active)
GI50 (TK-10): 0.201 µM (active)
GI50 (U-251): 0.579 µM (active)
GI50 (UACC-257): 0.0975 µM (active)
GI50 (UACC-62): 0.054 µM (active)
GI50 (UO-31): 2.94 µM (inactive)

CCOP(=O)(OCC)C(NC(=O)OCC(Cl)(Cl)Cl)n1nnc(C(=O)OC)c1C(=O)OC (centres undefined)
GI50 (786-0): > 100 µM (inactive)
GI50 (A498): > 100 µM (inactive)
GI50 (A549): > 100 µM (inactive)
GI50 (ACHN): > 100 µM (inactive)
GI50 (BT-549): > 100 µM (inactive)
GI50 (CAKI-1): > 100 µM (inactive)
GI50 (CCRF-CEM): > 100 µM (inactive)
GI50 (COLO 205): > 100 µM (inactive)
GI50 (DU-145): > 100 µM (inactive)
GI50 (EKVX): > 100 µM (inactive)
GI50 (HCC 2998): > 100 µM (inactive)
GI50 (HCT-116): > 100 µM (inactive)
GI50 (HCT-15): > 100 µM
GI50 (HL-60): > 100 µM (inactive)
GI50 (HOP-62): > 100 µM (inactive)
GI50 (HOP-92): > 100 µM (inactive)
GI50 (HT-29): > 100 µM (inactive)
GI50 (Hs-578T): > 100 µM (inactive)
GI50 (IGROV-1): > 100 µM (inactive)
GI50 (K562): > 100 µM (inactive)
GI50 (KM12): > 100 µM (inactive)
GI50 (LOX IMVI): > 100 µM (inactive)
GI50 (M14): > 100 µM (inactive)
GI50 (MCF7): > 100 µM (inactive)
GI50 (MDA-MB-231): > 100 µM (inactive)
GI50 (MDA-MB-435): > 100 µM (inactive)
GI50 (MDA-N): > 100 µM (inactive)
GI50 (MOLT-4): > 100 µM (inactive)
GI50 (Malme-3M): > 100 µM (inactive)
GI50 (NCI-H226): > 100 µM (inactive)
GI50 (NCI-H23): > 100 µM (inactive)
GI50 (NCI-H460): > 100 µM (inactive)
GI50 (NCI-H522): > 100 µM (inactive)
GI50 (NCI/ADR-RES): > 100 µM (inactive)
GI50 (OVCAR-3): > 100 µM (inactive)
GI50 (OVCAR-4): > 100 µM (inactive)
GI50 (OVCAR-8): > 100 µM (inactive)
GI50 (PC-3): 77.8 µM (inactive)
GI50 (RPMI-8226): > 100 µM (inactive)
GI50 (RXF 393): > 100 µM (inactive)
GI50 (SF-268): > 100 µM (inactive)
GI50 (SF-295): > 100 µM (inactive)
GI50 (SF-539): > 100 µM (inactive)
GI50 (SK-MEL-28): > 100 µM (inactive)
GI50 (SK-MEL-2): > 100 µM (inactive)
GI50 (SK-MEL-5): > 100 µM (inactive)
GI50 (SK-OV-3): > 100 µM (inactive)
GI50 (SN12C): > 10 µM (inactive)
GI50 (SNB-19): > 100 µM (inactive)
GI50 (SNB-75): > 100 µM (inactive)
GI50 (SR): > 100 µM (inactive)
GI50 (SW-620): > 100 µM (inactive)
GI50 (T47D): > 100 µM (inactive)
GI50 (TK-10): > 100 µM (inactive)
GI50 (U-251): > 100 µM (inactive)
GI50 (UACC-257): > 100 µM (inactive)
GI50 (UACC-62): > 100 µM (inactive)
GI50 (UO-31): > 100 µM (inactive)

CCN(CC)C(=S)SC(=S)N(CC)CC
GI50 (786-0): 23.7 µM (inactive)
GI50 (A498): 47.3 µM (inactive)
GI50 (A549): 28.5 µM (inactive)
GI50 (ACHN): 35.4 µM (inactive)
GI50 (BT-549): 27.3 µM (inactive)
GI50 (CAKI-1): 36.1 µM (inactive)
GI50 (COLO 205): 18.3 µM (inactive)
GI50 (DU-145): 55.8 µM (inactive)
GI50 (EKVX): 42.6 µM (inactive)
GI50 (HCC 2998): 1.93 µM (inactive)
GI50 (HCT-116): 21 µM (inactive)
GI50 (HCT-15): 55 µM
GI50 (HL-60): 29.5 µM (inactive)
GI50 (HOP-62): 53.7 µM (inactive)
GI50 (HOP-92): 39.4 µM (inactive)
GI50 (Hs-578T): 50.7 µM (inactive)
GI50 (IGROV-1): 30.5 µM (inactive)
GI50 (K562): 28 µM (inactive)
GI50 (KM12): 28.1 µM (inactive)
GI50 (LOX IMVI): 23.4 µM (inactive)
GI50 (M14): 44.5 µM (inactive)
GI50 (MCF7): 34.8 µM (inactive)
GI50 (MDA-MB-231): 32.9 µM (inactive)
GI50 (MDA-MB-435): 34.1 µM (inactive)
GI50 (MDA-N): 43.4 µM (inactive)
GI50 (MOLT-4): 26.4 µM (inactive)
GI50 (Malme-3M): 23.3 µM (inactive)
GI50 (NCI-H226): 33.7 µM (inactive)
GI50 (NCI-H23): 26.2 µM (inactive)
GI50 (NCI-H460): 2.3 µM (inactive)
GI50 (NCI-H522): 0.0951 µM (active)
GI50 (NCI/ADR-RES): 42.5 µM (inactive)
GI50 (OVCAR-3): 37 µM (inactive)
GI50 (OVCAR-4): 19.9 µM (inactive)
GI50 (OVCAR-5): > 100 µM (inactive)
GI50 (OVCAR-8): 31.6 µM (inactive)
GI50 (PC-3): 38.1 µM (inactive)
GI50 (RPMI-8226): 15.6 µM (inactive)
GI50 (RXF 393): 36.6 µM (inactive)
GI50 (SF-268): 41.9 µM (inactive)
GI50 (SF-295): 39.8 µM (inactive)
GI50 (SF-539): > 62.8 µM (inactive)
GI50 (SK-MEL-28): 36.6 µM (inactive)
GI50 (SK-MEL-2): 31.3 µM (inactive)
GI50 (SK-MEL-5): 5.07 µM (inactive)
GI50 (SK-OV-3): > 100 µM (inactive)
GI50 (SN12C): > 54.3 µM (inactive)
GI50 (SNB-19): 49.8 µM (inactive)
GI50 (SNB-75): 31.3 µM (inactive)
GI50 (SR): 0.0482 µM (active)
GI50 (SW-620): 28.6 µM (inactive)
GI50 (T47D): 32.4 µM (inactive)
GI50 (TK-10): > 51.2 µM (inactive)
GI50 (U-251): 36 µM (inactive)
GI50 (UACC-257): 41.6 µM (inactive)
GI50 (UACC-62): 20.8 µM (inactive)
GI50 (UO-31): 30.3 µM (inactive)
